Laboratory results from patent US20220289679A1, “HETEROCYCLIC COMPOUND” (Takeda Pharmaceutical Company Limited, priority 2019, published 2022).

Biological target: T1, human GCS (glucosylceramide synthase) (Homo sapiens, UniProt Q16739)
T1 construct: made in house; host or cells: Expi293F cells (transient expression; microsome fraction)
T1 sequence (Q16739 1-394): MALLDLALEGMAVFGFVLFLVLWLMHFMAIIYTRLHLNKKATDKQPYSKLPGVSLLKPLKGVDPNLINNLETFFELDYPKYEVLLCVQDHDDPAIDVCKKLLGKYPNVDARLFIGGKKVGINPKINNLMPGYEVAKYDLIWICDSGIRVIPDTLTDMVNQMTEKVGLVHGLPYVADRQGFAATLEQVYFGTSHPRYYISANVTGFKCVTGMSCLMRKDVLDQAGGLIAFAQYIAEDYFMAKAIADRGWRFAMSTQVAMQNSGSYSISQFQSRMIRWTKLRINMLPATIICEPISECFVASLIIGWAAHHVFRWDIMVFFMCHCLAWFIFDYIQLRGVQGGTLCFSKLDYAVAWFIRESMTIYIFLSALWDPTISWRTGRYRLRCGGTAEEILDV
Experiment: Glucosylceramide Synthase (GCS) Assay
Assay type: biochemical
Conditions: test compound 10 μM; microsome fraction of Expi293F cells expressing human GCS; 1.7 μM UDP-glucose, 3 μM C8 ceramide; room temperature 60 min; C8 glucosylceramide by Rapidfire MS/MS; read-out: GCS enzyme inhibitory rate at 10 μM (%)
In short: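 Enzyme source was a microsome fraction from Expi293F cells transiently expressing human GCS. Reaction ran 60 min at room temperature in 20 mM Tris pH 7.5 with 1.7 μM UDP-glucose (Km) and 3 μM liposomal C8 ceramide, compound at 10 μM final. C8 glucosylceramide quantified by RapidFire MS/MS; inhibition scaled between enzyme-free and DMSO controls.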

| Structure (SMILES) | inhibition at 10 µM [%] |
| --- | --- |
| CC(C)(O)COc1cc(F)ccc1-n1cccc(C(=O)Nc2ccc(C(O)(C(F)(F)F)C(F)(F)F)cc2)c1=O [Example 105, 1-[4-fluoro-2-(2-hydroxy-2-methylpropoxy)phenyl]-N-[4-(1,1,1,3,3,3-hexafluoro-2-hydroxypropan-2-yl)phenyl]-2-oxo-1,2-dihydropyridine-3-carboxamide] | 99 |
| CC(C)(O)c1ccc(NC(=O)c2ccnn(-c3ccc(F)cc3OCC(F)(F)C(F)(F)F)c2=O)cc1 [Example 106, 2-[4-fluoro-2-(2,2,3,3,3-pentafluoropropoxy)phenyl]-N-[4-(2-hydroxypropan-2-yl)phenyl]-3-oxo-2,3-dihydropyridazine-4-carboxamide] | 99 |
| Cc1cc(C(=O)Nc2ccc(C(C)(C)O)cc2)c(=O)n(-c2ccc(F)cc2OCC(F)(F)F)c1 [Example 107, 1-[4-fluoro-2-(2,2,2-trifluoroethoxy)phenyl]-N-[4-(2-hydroxypropan-2-yl)phenyl]-5-methyl-2-oxo-1,2-dihydropyridine-3-carboxamide] | 100 |
| CC(C)(O)c1ccc(NC(=O)c2cccn(-c3cc(F)c(F)cc3OCC(F)(F)F)c2=O)cc1 [Example 108, 1-[4,5-difluoro-2-(2,2,2-trifluoroethoxy)phenyl]-N-[4-(2-hydroxypropan-2-yl)phenyl]-2-oxo-1,2-dihydropyridine-3-carboxamide] | 95 |
| Cc1cc(C(=O)Nc2ccc(C(O)(C(F)F)C(F)F)nc2)c(=O)n(-c2ccccc2OCC(F)F)n1 [Example 109, 2-[2-(2,2-difluoroethoxy)phenyl]-6-methyl-3-oxo-N-[6-(1,1,3,3-tetrafluoro-2-hydroxypropan-2-yl)pyridin-3-yl]-2,3-dihydropyridazine-4-carboxamide] | 100 |
| O=C(Nc1ccc(OCC(F)(F)F)nc1)c1cccn(-c2ncncc2OCC(F)(F)F)c1=O [Example 110, 2-oxo-N-[6-(2,2,2-trifluoroethoxy)pyridin-3-yl]-1-[5-(2,2,2-trifluoroethoxy)pyrimidin-4-yl]-1,2-dihydropyridine-3-carboxamide] | 99 |
| CC(C)(O)c1ccc(NC(=O)c2cccn(-c3ccc(F)c(F)c3OCC(F)(F)F)c2=O)cc1 [Example 111, 1-[3,4-difluoro-2-(2,2,2-trifluoroethoxy)phenyl]-N-[4-(2-hydroxypropan-2-yl)phenyl]-2-oxo-1,2-dihydropyridine-3-carboxamide] | 98 |
| CC(C)(O)c1ccc(NC(=O)c2ccnn(-c3ccc(F)cc3OCC(F)(F)F)c2=O)cn1 [Example 112, 2-[4-fluoro-2-(2,2,2-trifluoroethoxy)phenyl]-N-[6-(2-hydroxypropan-2-yl)pyridin-3-yl]-3-oxo-2,3-dihydropyridazine-4-carboxamide] | 94 |
| CC(C)(O)c1ccc(NC(=O)c2cccn(-c3cc(F)ccc3OCC(F)(F)F)c2=O)cc1 [Example 113, 1-[5-fluoro-2-(2,2,2-trifluoroethoxy)phenyl]-N-[4-(2-hydroxypropan-2-yl)phenyl]-2-oxo-1,2-dihydropyridine-3-carboxamide] | 98 |
| CC(C)(O)c1ccc(NC(=O)c2cccn(-c3cccnc3OCC(F)(F)F)c2=O)cc1 [Example 114, N-[4-(2-hydroxypropan-2-yl)phenyl]-2-oxo-2′-(2,2,2-trifluoroethoxy)-2H-[1,3′-bipyridine]-3-carboxamide] | 96 |
| O=C(Nc1ccc(C(O)(C(F)F)C(F)F)nc1)c1ccnn(-c2ccc(F)cc2OCC(F)(F)F)c1=O [Example 117, 2-[4-fluoro-2-(2,2,2-trifluoroethoxy)phenyl]-3-oxo-N-[6-(1,1,3,3-tetrafluoro-2-hydroxypropan-2-yl)pyridin-3-yl]-2,3-dihydropyridazine-4-carboxamide] | 100 |
| O=C(Nc1ccc(C(O)(C(F)F)C(F)F)nc1)c1cccn(-c2cc(F)c(F)cc2OCC(F)(F)F)c1=O [Example 118, 1-[4,5-difluoro-2-(2,2,2-trifluoroethoxy)phenyl]-2-oxo-N-[6-(1,1,3,3-tetrafluoro-2-hydroxypropan-2-yl)pyridin-3-yl]-1,2-dihydropyridine-3-carboxamide] | 97 |
| CC(C)(O)c1ccc(NC(=O)c2cccn(-c3ncncc3OCC(F)(F)F)c2=O)cn1 [Example 119, N-[6-(2-hydroxypropan-2-yl)pyridin-3-yl]-2-oxo-1-[5-(2,2,2-trifluoroethoxy)pyrimidin-4-yl]-1,2-dihydropyridine-3-carboxamide] | 74 |
| CC(C)(O)c1ccc(NC(=O)c2cccn(-c3cccnc3OCC(F)(F)F)c2=O)cn1 [Example 120, N-[6-(2-hydroxypropan-2-yl)pyridin-3-yl]-2-oxo-2′-(2,2,2-trifluoroethoxy)-2H-[1,3′-bipyridine]-3-carboxamide] | 74 |
| O=C(Nc1ccc(C(O)(C(F)F)C(F)F)nc1)c1cccn(-c2ccnnc2OCC(F)(F)F)c1=O [Example 122, 2-oxo-N-[6-(1,1,3,3-tetrafluoro-2-hydroxypropan-2-yl)pyridin-3-yl]-1-[3-(2,2,2-trifluoroethoxy)pyridazin-4-yl]-1,2-dihydropyridine-3-carboxamide] | 95 |
| O=C(Nc1ccc(C(O)(C(F)F)C(F)F)nc1)c1cccn(-c2cccnc2OCC(F)(F)F)c1=O [Example 123, 2-oxo-N-[6-(1,1,3,3-tetrafluoro-2-hydroxypropan-2-yl)pyridin-3-yl]-2′-(2,2,2-trifluoroethoxy)-2H-[1,3′-bipyridine]-3-carboxamide] | 99 |
| O=C(Nc1ccc(C(O)(C(F)F)C(F)F)nc1)c1cccn(-c2cc(F)ccc2OCC(F)(F)F)c1=O [Example 124, 1-[5-fluoro-2-(2,2,2-trifluoroethoxy)phenyl]-2-oxo-N-[6-(1,1,3,3-tetrafluoro-2-hydroxypropan-2-yl)pyridin-3-yl]-1,2-dihydropyridine-3-carboxamide] | 99 |
| CC(C)(O)c1ccc(NC(=O)c2cccn(-c3cc(F)ccc3OCC(F)(F)F)c2=O)cn1 [Example 125, 1-[5-fluoro-2-(2,2,2-trifluoroethoxy)phenyl]-N-[6-(2-hydroxypropan-2-yl)pyridin-3-yl]-2-oxo-1,2-dihydropyridine-3-carboxamide] | 82 |

Next, values leading:

| inhibition at 10 µM [%] | Structure (SMILES) |
| --- | --- |
| 97 | CC(C)(O)c1ccc(NC(=O)c2ccnn(-c3ccccc3OCC(F)(F)F)c2=O)cn1 [Example 126, N-[6-(2-hydroxypropan-2-yl)pyridin-3-yl]-3-oxo-2-[2-(2,2,2-trifluoroethoxy)phenyl]-2,3-dihydropyridazine-4-carboxamide] |
| 100 | CC(C)(O)c1ccc(NC(=O)c2ccnn(-c3ccccc3OCC(F)(F)F)c2=O)cc1 [Example 127, N-[4-(2-hydroxypropan-2-yl)phenyl]-3-oxo-2-[2-(2,2,2-trifluoroethoxy)phenyl]-2,3-dihydropyridazine-4-carboxamide] |
| 98 | CC(C)(O)c1ccc(NC(=O)c2ccnn(-c3ccccc3OCC(F)(F)F)c2=O)nc1 [Example 128, N-[5-(2-hydroxypropan-2-yl)pyridin-2-yl]-3-oxo-2-[2-(2,2,2-trifluoroethoxy)phenyl]-2,3-dihydropyridazine-4-carboxamide] |
| 99 | Cc1cc(C(=O)Nc2ccc(C(C)(C)O)nc2)c(=O)n(-c2ccccc2OCC(F)(F)F)n1 [Example 129, N-[6-(2-hydroxypropan-2-yl)pyridin-3-yl]-6-methyl-3-oxo-2-[2-(2,2,2-trifluoroethoxy)phenyl]-2,3-dihydropyridazine-4-carboxamide] |
| 99 | Cc1cc(C(=O)Nc2ccc(C(C)(C)O)cn2)c(=O)n(-c2ccccc2OCC(F)(F)F)n1 [Example 130, N-[5-(2-hydroxypropan-2-yl)pyridin-2-yl]-6-methyl-3-oxo-2-[2-(2,2,2-trifluoroethoxy)phenyl]-2,3-dihydropyridazine-4-carboxamide] |
| 100 | Cc1cc(C(=O)Nc2ccc(C(C)(C)O)cc2)c(=O)n(-c2ccccc2OCC(F)(F)F)n1 [Example 131, N-[4-(2-hydroxypropan-2-yl)phenyl]-6-methyl-3-oxo-2-[2-(2,2,2-trifluoroethoxy)phenyl]-2,3-dihydropyridazine-4-carboxamide] |
| 96 | CC(C)(O)c1ccc(NC(=O)c2ccnn(-c3ccccc3OCC(F)F)c2=O)nc1 [Example 132, 2-[2-(2,2-difluoroethoxy)phenyl]-N-[5-(2-hydroxypropan-2-yl)pyridin-2-yl]-3-oxo-2,3-dihydropyridazine-4-carboxamide] |
| 100 | CC(C)(O)c1ccc(NC(=O)c2ccnn(-c3ccccc3OCC(F)F)c2=O)cc1 [Example 133, 2-[2-(2,2-difluoroethoxy)phenyl]-N-[4-(2-hydroxypropan-2-yl)phenyl]-3-oxo-2,3-dihydropyridazine-4-carboxamide] |
| 94 | CC(C)(O)c1ccc(NC(=O)c2ccnn(-c3ccccc3OCC(F)F)c2=O)cn1 [Example 134, 2-[2-(2,2-difluoroethoxy)phenyl]-N-[6-(2-hydroxypropan-2-yl)pyridin-3-yl]-3-oxo-2,3-dihydropyridazine-4-carboxamide] |
